Source: patent US12528767B2, “HDAC6 inhibitors and uses thereof” (Eikonizo Therapeutics, Inc., priority 2019, dated 2026)
Like-named read-outs stand apart in the source and are kept apart here.

Tests used:
Full length Human HDAC6 = molecular target: T1, Full length Human HDAC6 (Homo sapiens, UniProt Q9UBN7)
T1 sequence (Q9UBN7 1-1215): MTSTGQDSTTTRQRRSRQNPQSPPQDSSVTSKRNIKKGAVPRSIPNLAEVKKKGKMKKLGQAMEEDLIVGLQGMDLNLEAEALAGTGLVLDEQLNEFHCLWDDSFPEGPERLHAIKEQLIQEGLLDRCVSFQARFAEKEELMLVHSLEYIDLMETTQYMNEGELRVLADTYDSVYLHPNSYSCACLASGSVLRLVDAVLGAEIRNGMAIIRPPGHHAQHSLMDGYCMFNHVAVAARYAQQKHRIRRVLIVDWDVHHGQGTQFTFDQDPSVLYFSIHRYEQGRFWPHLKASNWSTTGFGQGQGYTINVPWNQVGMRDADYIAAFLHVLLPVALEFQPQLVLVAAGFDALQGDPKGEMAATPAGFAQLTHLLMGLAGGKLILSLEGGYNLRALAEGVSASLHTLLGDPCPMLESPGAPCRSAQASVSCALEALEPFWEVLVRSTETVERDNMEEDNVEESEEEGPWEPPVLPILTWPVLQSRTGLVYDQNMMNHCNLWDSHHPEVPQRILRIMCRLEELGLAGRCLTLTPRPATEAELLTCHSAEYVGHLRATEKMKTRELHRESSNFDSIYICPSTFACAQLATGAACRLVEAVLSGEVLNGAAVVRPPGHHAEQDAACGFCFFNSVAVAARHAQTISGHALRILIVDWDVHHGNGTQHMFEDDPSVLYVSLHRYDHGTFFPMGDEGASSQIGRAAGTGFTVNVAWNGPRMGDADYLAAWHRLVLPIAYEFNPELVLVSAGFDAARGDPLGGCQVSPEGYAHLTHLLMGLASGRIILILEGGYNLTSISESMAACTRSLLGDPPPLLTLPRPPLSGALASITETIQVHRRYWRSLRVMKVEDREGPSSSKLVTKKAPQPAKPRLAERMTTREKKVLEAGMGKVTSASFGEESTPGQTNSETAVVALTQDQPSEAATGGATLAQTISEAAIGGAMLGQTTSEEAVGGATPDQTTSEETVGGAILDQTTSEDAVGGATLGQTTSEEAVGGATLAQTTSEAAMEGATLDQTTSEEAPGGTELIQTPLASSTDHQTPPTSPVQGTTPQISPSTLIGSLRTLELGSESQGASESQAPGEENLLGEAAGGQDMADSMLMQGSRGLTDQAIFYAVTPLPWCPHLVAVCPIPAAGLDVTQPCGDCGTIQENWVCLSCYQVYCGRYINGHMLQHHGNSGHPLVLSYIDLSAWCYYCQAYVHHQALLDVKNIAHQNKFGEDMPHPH

Human HDAC7 aa 518-end = molecular target: T2, Human HDAC7 aa 518-end (Homo sapiens, UniProt Q8WUI4)
T2 sequence (Q8WUI4 518-952 limits assumed): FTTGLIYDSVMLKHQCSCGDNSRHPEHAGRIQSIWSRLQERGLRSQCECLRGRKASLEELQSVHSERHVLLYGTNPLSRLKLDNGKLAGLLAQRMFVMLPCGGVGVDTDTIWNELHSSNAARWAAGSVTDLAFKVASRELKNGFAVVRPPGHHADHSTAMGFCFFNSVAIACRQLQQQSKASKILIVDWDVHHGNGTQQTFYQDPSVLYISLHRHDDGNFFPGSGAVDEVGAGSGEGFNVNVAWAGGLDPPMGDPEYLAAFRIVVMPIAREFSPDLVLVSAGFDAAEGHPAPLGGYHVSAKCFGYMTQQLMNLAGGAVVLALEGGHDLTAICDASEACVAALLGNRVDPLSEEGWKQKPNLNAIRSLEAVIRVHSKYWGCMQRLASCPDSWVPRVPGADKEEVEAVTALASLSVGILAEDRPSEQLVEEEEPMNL

Full length Human HDAC8 = molecular target: T3, Full length Human HDAC8 (Homo sapiens, UniProt Q9BY41)
T3 sequence (Q9BY41 1-377): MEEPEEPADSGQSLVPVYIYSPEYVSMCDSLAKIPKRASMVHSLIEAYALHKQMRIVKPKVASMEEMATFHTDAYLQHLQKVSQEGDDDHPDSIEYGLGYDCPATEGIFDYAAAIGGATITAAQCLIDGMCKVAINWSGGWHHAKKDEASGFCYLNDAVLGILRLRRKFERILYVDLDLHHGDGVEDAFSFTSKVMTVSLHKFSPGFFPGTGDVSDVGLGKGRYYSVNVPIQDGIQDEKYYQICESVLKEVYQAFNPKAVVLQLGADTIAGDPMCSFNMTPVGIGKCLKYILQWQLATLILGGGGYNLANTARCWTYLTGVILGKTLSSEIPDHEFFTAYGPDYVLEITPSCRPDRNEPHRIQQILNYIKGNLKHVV

Full length Human HDAC10 = molecular target: T4, Full length Human HDAC10 (Homo sapiens, UniProt Q969S8)
T4 sequence (Q969S8 1-669): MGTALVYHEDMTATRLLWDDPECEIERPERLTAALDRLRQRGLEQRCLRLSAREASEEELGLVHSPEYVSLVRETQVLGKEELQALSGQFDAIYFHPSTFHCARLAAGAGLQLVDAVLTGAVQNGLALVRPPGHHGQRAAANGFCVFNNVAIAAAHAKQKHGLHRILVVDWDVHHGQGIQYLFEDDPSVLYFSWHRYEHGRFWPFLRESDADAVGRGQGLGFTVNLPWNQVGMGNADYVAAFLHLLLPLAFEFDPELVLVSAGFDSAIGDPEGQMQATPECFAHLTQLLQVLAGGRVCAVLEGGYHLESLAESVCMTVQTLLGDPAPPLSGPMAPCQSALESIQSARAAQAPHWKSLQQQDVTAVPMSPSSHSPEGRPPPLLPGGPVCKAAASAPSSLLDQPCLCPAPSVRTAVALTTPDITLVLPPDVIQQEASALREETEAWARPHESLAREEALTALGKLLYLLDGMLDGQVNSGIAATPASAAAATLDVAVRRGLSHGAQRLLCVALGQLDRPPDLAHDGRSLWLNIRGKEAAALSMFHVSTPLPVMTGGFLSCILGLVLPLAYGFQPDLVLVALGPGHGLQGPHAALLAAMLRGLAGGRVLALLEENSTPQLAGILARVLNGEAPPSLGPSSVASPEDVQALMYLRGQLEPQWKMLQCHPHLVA

[1] = read-out: In vitro enzymatic IC50, HDAC Paralog 6, Table 2
[2] = read-out: In vitro enzymatic IC50, HDAC Paralog 8, Table 2

Structure (SMILES)	IC50 (Full length Human HDAC6) [µM]	IC50 (Full length Human HDAC6; [1]) [µM]	IC50 (Human HDAC7 aa 518-end) [µM]	IC50 (Full length Human HDAC8) [µM]	IC50 (Full length Human HDAC8; [2]) [µM]	IC50 (Full length Human HDAC10) [µM]
O=C(NO)c1cc(F)c2c(c1)CCN1CCC[C@@H]21 (single isomer, unassigned) [compound 79]	0.001 to 0.1		0.1 to 1	1 to 10		10 to 100
O=C(NO)c1ccc2c(c1)CN1CCCCN1C2 [compound 106, N-hydroxy-1,2,3,4,6,11-hexahydropyridazino[1,2-b]phthalazine-8-carboxamide]	0.1 to 1	0.1 to 1	10 to 100	1 to 10	1 to 10	> 100
O=C(NO)c1cc(F)c2c(c1)CCN(C1CC3(CCCCC3)C1)C2 [compound 16]	0.001 to 0.1	0.001 to 0.1	10 to 100	10 to 100	10 to 100	10 to 100
O=C(NO)c1ccc(CN2CC3CCC2CO3)c(F)c1 (stereo not shown) [compound 58]	0.001 to 0.1	0.001 to 0.1	1 to 10	0.1 to 1	0.1 to 1	10 to 100
O=C(NO)c1ccc(CN2CC3CCC(C2)O3)c(F)c1 [compound 53]	0.001 to 0.1	0.001 to 0.1	0.1 to 1	0.1 to 1	0.1 to 1	1 to 10
O=C(NO)c1cc(F)c2c(c1)C[C@H]1CCCCN1C2 (single isomer, unassigned) [compound 94]	0.1 to 1		1 to 10	1 to 10		> 100
O=C(NO)c1ccc(CN2C[C@H]3CC[C@@H]2CO3)c(F)c1 (single isomer, unassigned) [compound 173]	0.001 to 0.1		1 to 10	1 to 10		10 to 100

Second part, the molecule after the results:

IC50 (Full length Human HDAC6) [µM]	IC50 (Full length Human HDAC6; [1]) [µM]	IC50 (Human HDAC7 aa 518-end) [µM]	IC50 (Full length Human HDAC8) [µM]	IC50 (Full length Human HDAC8; [2]) [µM]	IC50 (Full length Human HDAC10) [µM]	Structure (SMILES)
0.001 to 0.1	0.001 to 0.1	1 to 10	1 to 10	1 to 10	10 to 100	O=C(NO)c1cc(F)c2c(c1)CCN(Cc1ccccc1)C2 [compound 32]
0.001 to 0.1		1 to 10	1 to 10		10 to 100	O=C(NO)c1cc(F)c2c(c1)C[C@@H]1CCCCN1C2 (single isomer, unassigned) [compound 93]
0.001 to 0.1	0.001 to 0.1	1 to 10	1 to 10	1 to 10	> 100	O=C(NO)c1ccc(CN2C[C@@H]3CC[C@H]2CO3)c(F)c1 (single isomer, unassigned) [compound 172]
0.001 to 0.1	0.001 to 0.1	1 to 10	1 to 10	1 to 10	10 to 100	O=C(NO)c1ccc(CN2CCC3(CCCCC3)C2)c(F)c1 [compound 75, 4-((2-Azaspiro[4.5]decan-2-yl)methyl)-3-fluoro-N-hydroxybenzamide]
0.001 to 0.1	0.001 to 0.1	10 to 100	10 to 100	10 to 100	10 to 100	O=C(NO)c1cc(F)c2c(c1)CCN(CC13CC4CC(CC(C4)C1)C3)C2 [compound 34]
